From article PMC5218480 (PLoS ONE, 2017)

Tested on: MV-4-11 cells
Test: Gene expression microarray analysis (Affymetrix PrimeView) and GSEA
Format: cell-based, human
Set-up: RFU PODN (11730768_x_at) / Fold change /veh PODN (11730768_x_at) / RFU LINC00158 (11744669_a_at) / Fold change /veh LINC00158 (11744669_a_at) / RFU DUSP10 (11751237_a_at) / Fold change /veh DUSP10 (11751237_a_at) / RFU ID3 (11757404_x_at) / Fold change /veh ID3 (11757404_x_at) / RFU PLEKHG5 (11737974_s_at) / Fold change /veh PLEKHG5 (11737974_s_at) / RFU LRRC4B (11730491_at) / Fold change /veh LRRC4B (11730491_at) / RFU GIMAP4 (11747438_a_at) / Fold change /veh GIMAP4 (11747438_a_at) / RFU KRT8 (11758183_x_at) / Fold change /veh KRT8 (11758183_x_at) / RFU CNN1 (11734310_a_at) / Fold change /veh CNN1 (11734310_a_at) / RFU VPS37D (11726825_at) / Fold change /veh VPS37D (11726825_at) / RFU C10orf10 (11716522_x_at) / Fold change /veh C10orf10 (11716522_x_at) / RFU KIR2DL2 /// KIR2DL4 /// KIR2DL5A /// KIR2DL5B /// KIR2DS1 /// KIR2DS2 /// KIR2DS3 /// KIR2DS4 /// KIR3DL3 /// KIR3DL3 /// KIR3DS1 (11738374_at) / Fold change /veh KIR2DL2 /// KIR2DL4 /// KIR2DL5A /// KIR2DL5B /// KIR2DS1 /// KIR2DS2 /// KIR2DS3 /// KIR2DS4 /// KIR3DL3 /// KIR3DL3 /// KIR3DS1 (11738374_at) / RFU C1QL1 (11718748_at) / Fold change /veh C1QL1 (11718748_at) / RFU TMPRSS4 (11747572_a_at) / Fold change /veh TMPRSS4 (11747572_a_at) / RFU HAMP (11756126_x_at) / Fold change /veh HAMP (11756126_x_at) / RFU RNFT2 (11725882_a_at) / Fold change /veh RNFT2 (11725882_a_at) / RFU NR4A2 (11747474_a_at) / Fold change /veh NR4A2 (11747474_a_at) / RFU ABCC12 (11746883_a_at) / Fold change /veh ABCC12 (11746883_a_at) / RFU TMEM136 (11760407_x_at) / Fold change /veh TMEM136 (11760407_x_at) / RFU CLDN22 /// WWC2 (11732394_at) / Fold change /veh CLDN22 /// WWC2 (11732394_at) / RFU HLA-DPB1 (11760878_x_at) / Fold change /veh HLA-DPB1 (11760878_x_at) / RFU SPINT1 (11716480_a_at) / Fold change /veh SPINT1 (11716480_a_at) / RFU GAP43 (11754022_s_at) / Fold change /veh GAP43 (11754022_s_at) / RFU A4GNT (11735810_at) / Fold change /veh A4GNT (11735810_at) / RFU PRB3 (11715151_x_at) / Fold change /veh PRB3 (11715151_x_at) / RFU TUBB4B (11761932_at) / Fold change /veh TUBB4B (11761932_at) / RFU CAPN14 (11732068_a_at) / Fold change /veh CAPN14 (11732068_a_at) / RFU TMCC2 (11721928_a_at) / Fold change /veh TMCC2 (11721928_a_at) / RFU IRGQ (11745062_a_at) / Fold change /veh IRGQ (11745062_a_at) / RFU FAM174B (11720279_a_at) / Fold change /veh FAM174B (11720279_a_at) / RFU TMPRSS4 (11748680_a_at) / Fold change /veh TMPRSS4 (11748680_a_at) / RFU FAM212B (11763350_a_at) / Fold change /veh FAM212B (11763350_a_at) / RFU PLEKHG5 (11743358_a_at) / Fold change /veh PLEKHG5 (11743358_a_at) / RFU ZSCAN30 (11745921_a_at) / Fold change /veh ZSCAN30 (11745921_a_at) / RFU CMKLR1 (11741424_a_at) / Fold change /veh CMKLR1 (11741424_a_at) / RFU LOC101060620 /// MAPK8IP1 (11723275_at) / Fold change /veh LOC101060620 /// MAPK8IP1 (11723275_at) / RFU SPTSSB (11747773_x_at) / Fold change /veh SPTSSB (11747773_x_at) / RFU PRSS12 (11739890_at) / Fold change /veh PRSS12 (11739890_at) / RFU BIN1 (11741810_x_at) / Fold change /veh BIN1 (11741810_x_at) / RFU WNT11 (11732464_a_at) / Fold change /veh WNT11 (11732464_a_at) / RFU C10orf10 (11716521_a_at) / Fold change /veh C10orf10 (11716521_a_at) / RFU C5orf56 (11738089_at) / Fold change /veh C5orf56 (11738089_at) / RFU CYB561 (11721691_x_at) / Fold change /veh CYB561 (11721691_x_at) / RFU ANKRD19P (11752326_a_at) / Fold change /veh ANKRD19P (11752326_a_at) / RFU OR2T12 /// OR2T33 /// OR2T8 (11738714_s_at) / Fold change /veh OR2T12 /// OR2T33 /// OR2T8 (11738714_s_at) / RFU VCAN (11748164_a_at) / Fold change /veh VCAN (11748164_a_at) / RFU JSRP1 (11732532_at) / Fold change /veh JSRP1 (11732532_at) / RFU KRTAP10-11 (11738290_x_at) / Fold change /veh KRTAP10-11 (11738290_x_at) / RFU MYO3A (11730013_a_at) / Fold change /veh MYO3A (11730013_a_at) / RFU EBF3 (11725865_a_at) / Fold change /veh EBF3 (11725865_a_at) / RFU CAMK2N1 (11719241_x_at) / Fold change /veh CAMK2N1 (11719241_x_at) / RFU C5orf56 (11738088_a_at) / Fold change /veh C5orf56 (11738088_a_at) / RFU OLFML3 (11715873_a_at) / Fold change /veh OLFML3 (11715873_a_at) / RFU LOC100653217 /// NTM (11731650_a_at) / Fold change /veh LOC100653217 /// NTM (11731650_a_at) / RFU MAPK11 (11762145_a_at) / Fold change /veh MAPK11 (11762145_a_at) / RFU FIZ1 (11724087_x_at) / Fold change /veh FIZ1 (11724087_x_at) / RFU OASL (11726364_x_at) / Fold change /veh OASL (11726364_x_at) / RFU SOX15 (11748057_x_at) / Fold change /veh SOX15 (11748057_x_at) / RFU CD79A (11719716_a_at) / Fold change /veh CD79A (11719716_a_at) / RFU HIST1H1D (11736915_at) / Fold change /veh HIST1H1D (11736915_at) / RFU CASKIN2 (11723855_a_at) / Fold change /veh CASKIN2 (11723855_a_at) / RFU LOC730098 (11760151_x_at) / Fold change /veh LOC730098 (11760151_x_at) / RFU OR4N2 (11742367_at) / Fold change /veh OR4N2 (11742367_at) / RFU PRRT2 (11749266_a_at) / Fold change /veh PRRT2 (11749266_a_at) / RFU SNX32 (11753110_a_at) / Fold change /veh SNX32 (11753110_a_at) / RFU CDHR5 (11726645_a_at) / Fold change /veh CDHR5 (11726645_a_at) / RFU RCAN1 (11760418_a_at) / Fold change /veh RCAN1 (11760418_a_at) / RFU FAM167A (11723789_a_at) / Fold change /veh FAM167A (11723789_a_at) / RFU FAM26E (11764081_at) / Fold change /veh FAM26E (11764081_at) / RFU ISYNA1 (11749810_s_at) / Fold change /veh ISYNA1 (11749810_s_at) / RFU ACY1 (11761880_at) / Fold change /veh ACY1 (11761880_at) / RFU 11764098_at / Fold change /veh 11764098_at / RFU SAMD14 (11745864_x_at) / Fold change /veh SAMD14 (11745864_x_at) / RFU NPB (11741838_a_at) / Fold change /veh NPB (11741838_a_at) / RFU TMPRSS6 (11731388_a_at) / Fold change /veh TMPRSS6 (11731388_a_at) / RFU KRTAP10-2 (11738614_at) / Fold change /veh KRTAP10-2 (11738614_at) / RFU ARHGAP8 /// PRR5-ARHGAP8 (11727945_x_at) / Fold change /veh ARHGAP8 /// PRR5-ARHGAP8 (11727945_x_at) / RFU KRTAP5-7 /// NADSYN1 (11734609_at) / Fold change /veh KRTAP5-7 /// NADSYN1 (11734609_at) / RFU RASL12 (11751679_a_at) / Fold change /veh RASL12 (11751679_a_at) / RFU CDKN2B (11736163_a_at) / Fold change /veh CDKN2B (11736163_a_at) / RFU PRF1 (11729649_at) / Fold change /veh PRF1 (11729649_at) / RFU, ZNF638 /// ZNF638-IT1 / Fold change vs veh, ZNF638 /// ZNF638-IT1 / RFU, PANK3 / Fold change vs veh, PANK3 / RFU, SH3YL1 / Fold change vs veh, SH3YL1 / RFU, ZEB2 / Fold change vs veh, ZEB2 / RFU, NRIP1 / Fold change vs veh, NRIP1 / RFU, PTTG1IP / Fold change vs veh, PTTG1IP / RFU, CAPN2 / Fold change vs veh, CAPN2 / RFU, MED14 / Fold change vs veh, MED14 / RFU, SNORA58 / Fold change vs veh, SNORA58 / RFU, C1orf63 / Fold change vs veh, C1orf63 / RFU, LRRFIP1 / Fold change vs veh, LRRFIP1 / RFU, NDUFAF7 / Fold change vs veh, NDUFAF7 / RFU, SLC12A2 / Fold change vs veh, SLC12A2 / RFU, IBTK / Fold change vs veh, IBTK / RFU, ESF1 / Fold change vs veh, ESF1 / Fold change vs veh, TMEM50B / RFU, TAOK1 / Fold change vs veh, TAOK1 / RFU, ACBD3 / Fold change vs veh, ACBD3 / RFU, TMA16 / Fold change vs veh, TMA16 / RFU, RWDD3 / Fold change vs veh, RWDD3 / RFU, BCAT1 / Fold change vs veh, BCAT1 / RFU, EDEM3 / Fold change vs veh, EDEM3 / RFU, TMEM33 / Fold change vs veh, TMEM33 / RFU, WDR75 / Fold change vs veh, WDR75 / RFU, AHCTF1 / Fold change vs veh, AHCTF1 / RFU, TFRC / Fold change vs veh, TFRC / RFU, ZDHHC17 / Fold change vs veh, ZDHHC17 / RFU, NOM1 / Fold change vs veh, NOM1 / RFU, ARL8B / Fold change vs veh, ARL8B / RFU, ZBTB11 / Fold change vs veh, ZBTB11 / RFU, TAMM41 / Fold change vs veh, TAMM41 / RFU, KIAA1704 /// LOC100996395 / Fold change vs veh, KIAA1704 /// LOC100996395 / RFU, ING1 / Fold change vs veh, ING1 / RFU, TRMT61B / Fold change vs veh, TRMT61B / RFU, FUBP3 / Fold change vs veh, FUBP3 / RFU, TP53 / Fold change vs veh, TP53 / RFU, TNKS2 / Fold change vs veh, TNKS2 / RFU, ZFP14 / Fold change vs veh, ZFP14 / RFU, ACTR2 / Fold change vs veh, ACTR2 / RFU, PPP3R1 / Fold change vs veh, PPP3R1 / RFU, PIK3R1 / Fold change vs veh, PIK3R1 / RFU, HNRNPA1 / Fold change vs veh, HNRNPA1 / RFU, RNF170 / Fold change vs veh, RNF170 / RFU, ZNF28 / Fold change vs veh, ZNF28 / RFU, RNGTT / Fold change vs veh, RNGTT / RFU, OGT / Fold change vs veh, OGT / RFU, BRD1 / Fold change vs veh, BRD1 / RFU, MARS / Fold change vs veh, MARS / RFU, ZNF655 / Fold change vs veh, ZNF655 / RFU, FAHD1 / Fold change vs veh, FAHD1 / RFU, BDP1 / Fold change vs veh, BDP1 / RFU, LRRCC1 / Fold change vs veh, LRRCC1 / RFU, ARID1A / Fold change vs veh, ARID1A / RFU, ZNF146 / Fold change vs veh, ZNF146 / RFU, ZNF330 / Fold change vs veh, ZNF330 / RFU, GPN3 / Fold change vs veh, GPN3 / RFU, C9orf123 / Fold change vs veh, C9orf123 / RFU, N4BP2L2 / Fold change vs veh, N4BP2L2 / RFU, ARFIP1 / Fold change vs veh, ARFIP1 / RFU, FAM179B / Fold change vs veh, FAM179B / RFU, BCL10 / Fold change vs veh, BCL10 / RFU, UHRF1BP1L / Fold change vs veh, UHRF1BP1L / RFU, BET1 / Fold change vs veh, BET1 / RFU, CNOT2 / Fold change vs veh, CNOT2 / RFU, ZNF268 / Fold change vs veh, ZNF268 / Fold change vs veh, ZNF507 / RFU, DGCR2 / Fold change vs veh, DGCR2 / RFU, WDSUB1 / Fold change vs veh, WDSUB1 / Fold change vs veh, HSP90B1 /// MIR3652 / RFU, ADSS / Fold change vs veh, ADSS / RFU, GK / Fold change vs veh, GK / RFU, ZNF148 / Fold change vs veh, ZNF148 / RFU, TAF9 / Fold change vs veh, TAF9 / RFU, SLC1A5 / Fold change vs veh, SLC1A5 / RFU, SLMO2 / Fold change vs veh, SLMO2 / RFU, ABCC4 / Fold change vs veh, ABCC4 / RFU, LOC101060439 /// RAP1B / Fold change vs veh, LOC101060439 /// RAP1B / RFU, RFX7 / Fold change vs veh, RFX7 / RFU, GTPBP10 / Fold change vs veh, GTPBP10 / RFU, CNEP1R1 / Fold change vs veh, CNEP1R1 / RFU, BIVM-ERCC5 /// ERCC5 / Fold change vs veh, BIVM-ERCC5 /// ERCC5 / RFU, ILF3 / Fold change vs veh, ILF3 / RFU 11762660_at / Fold change /veh 11762660_at / RFU VCAN (11757783_s_at) / Fold change /veh VCAN (11757783_s_at) / RFU DDX43 (11728927_at) / Fold change /veh DDX43 (11728927_at) / RFU KRT8 (11758188_x_at) / Fold change /veh KRT8 (11758188_x_at) / RFU NKD1 (11759106_at) / Fold change /veh NKD1 (11759106_at) / RFU SRD5A1 (11742802_a_at) / Fold change /veh SRD5A1 (11742802_a_at) / RFU TPSAB1 /// TPSB2 (11721975_s_at) / Fold change /veh TPSAB1 /// TPSB2 (11721975_s_at) / RFU GSTM3 (11746129_a_at) / Fold change /veh GSTM3 (11746129_a_at) / RFU IL23R (11737362_x_at) / Fold change /veh IL23R (11737362_x_at) / RFU TMEM51 (11727254_a_at) / Fold change /veh TMEM51 (11727254_a_at) / RFU PIWIL2 (11732686_x_at) / Fold change /veh PIWIL2 (11732686_x_at) / RFU ORM1 (11744905_x_at) / Fold change /veh ORM1 (11744905_x_at) / RFU CCDC152 (11743942_at) / Fold change /veh CCDC152 (11743942_at) / RFU ECM1 (11717891_a_at) / Fold change /veh ECM1 (11717891_a_at) / RFU IL23R (11748794_a_at) / Fold change /veh IL23R (11748794_a_at) / RFU TNFAIP8L3 (11732012_x_at) / Fold change /veh TNFAIP8L3 (11732012_x_at) / RFU MBOAT4 (11741988_at) / Fold change /veh MBOAT4 (11741988_at) / RFU 11764193_at / Fold change /veh 11764193_at / RFU TMEM53 (11763286_at) / Fold change /veh TMEM53 (11763286_at) / RFU MAGEB2 (11727129_at) / Fold change /veh MAGEB2 (11727129_at) / RFU TMEM200A (11744735_a_at) / Fold change /veh TMEM200A (11744735_a_at) / RFU CCDC152 (11751479_a_at) / Fold change /veh CCDC152 (11751479_a_at) / RFU FAM211A (11726209_a_at) / Fold change /veh FAM211A (11726209_a_at) / RFU RGS16 (11746705_a_at) / Fold change /veh RGS16 (11746705_a_at) / RFU VCAN (11755009_s_at) / Fold change /veh VCAN (11755009_s_at) / RFU RHOB (11743442_s_at) / Fold change /veh RHOB (11743442_s_at) / RFU RGS16 (11720943_a_at) / Fold change /veh RGS16 (11720943_a_at) / RFU RGS16 (11720944_at) / Fold change /veh RGS16 (11720944_at) / RFU, VPS4B / Fold change vs veh, VPS4B / RFU, CREB1 / Fold change vs veh, CREB1 / RFU, DNAJC13 / Fold change vs veh, DNAJC13 / RFU, GNAQ / Fold change vs veh, GNAQ / RFU, CDK5R1 / Fold change vs veh, CDK5R1 / RFU, ZRANB3 / Fold change vs veh, ZRANB3 / RFU, CUL4A / Fold change vs veh, CUL4A / RFU, CCNY / Fold change vs veh, CCNY / RFU, UFL1 / Fold change vs veh, UFL1 / RFU, COG3 / Fold change vs veh, COG3 / RFU, DIAPH2 / Fold change vs veh, DIAPH2 / RFU, SKA2 / Fold change vs veh, SKA2 / RFU, AFF3 / Fold change vs veh, AFF3 / RFU, LMF1 / Fold change vs veh, LMF1 / RFU, IPO11 / Fold change vs veh, IPO11 / RFU, DFFB / Fold change vs veh, DFFB / RFU, FOXP1 / Fold change vs veh, FOXP1 / RFU, CARD8 / Fold change vs veh, CARD8 / RFU, STRN3 / Fold change vs veh, STRN3 / RFU, ADK / Fold change vs veh, ADK / RFU, RASSF2 / Fold change vs veh, RASSF2 / RFU, WIPF1 / Fold change vs veh, WIPF1 / RFU, LARP1B / Fold change vs veh, LARP1B / RFU, RASA1 / Fold change vs veh, RASA1 / RFU, RB1 / Fold change vs veh, RB1 / RFU, PPFIA1 / Fold change vs veh, PPFIA1 / RFU, MAT2A / Fold change vs veh, MAT2A / RFU, CCT5 / Fold change vs veh, CCT5 / RFU, WDR92 / Fold change vs veh, WDR92 / RFU, CUX1 / Fold change vs veh, CUX1 / RFU, TTC7A / Fold change vs veh, TTC7A / RFU, TMEM135 / Fold change vs veh, TMEM135 / RFU, DEPTOR / Fold change vs veh, DEPTOR / RFU, CPM / Fold change vs veh, CPM / RFU, DNAJB6 / Fold change vs veh, DNAJB6 / RFU, CACNA2D3 / Fold change vs veh, CACNA2D3 / RFU, DTX4 / Fold change vs veh, DTX4 / RFU, TFCP2 / Fold change vs veh, TFCP2 / RFU, GMCL1 /// GMCL1P1 / Fold change vs veh, GMCL1 /// GMCL1P1 / RFU, AEBP2 / Fold change vs veh, AEBP2 / RFU, SNHG1 /// SNORD22 /// SNORD25 /// SNORD26 /// SNORD27 /// SNORD28 /// SNORD29 /// SNORD31 / Fold change vs veh, SNHG1 /// SNORD22 /// SNORD25 /// SNORD26 /// SNORD27 /// SNORD28 /// SNORD29 /// SNORD31 / Fold change (Aza/veh), C12orf56 (ProbeSet 11735607_a_at) / Fold change (ACY-1035/veh), C12orf56 (ProbeSet 11735607_a_at) / Fold change (Aza/veh), FGFR1OP (ProbeSet 11751329_s_at) / Fold change (ACY-1035/veh), FGFR1OP (ProbeSet 11751329_s_at) / Fold change (Aza/veh), VPS36 (ProbeSet 11739960_a_at) / Fold change (ACY-1035/veh), VPS36 (ProbeSet 11739960_a_at) / RFU SYPL1 (11715823_x_at) / Fold change /veh SYPL1 (11715823_x_at) / RFU IGFBP7 (11715501_s_at) / Fold change /veh IGFBP7 (11715501_s_at) / RFU REEP3 (11722064_at) / Fold change /veh REEP3 (11722064_at) / RFU IGLL1 (11728026_x_at) / Fold change /veh IGLL1 (11728026_x_at): dose or concentration left out as unconfirmed
Conditions: ProbeSet 11749781_s_at; LIST B

Nc1ncn([C@@H]2O[C@H](CO)[C@@H](O)[C@H]2O)c(=O)n1 [azacitidine]
Fold change vs veh, BCAT1: 0.85
